Source: ChEMBL document CHEMBL4342498, “Design and Discovery of an Orally Efficacious Spiroindolinone-Based Tankyrase Inhibitor for the Treatment of Colon Cancer” (J Med Chem, 2020)
Active and inactive are the calls of the source. No cut-off for these calls is given here.

How the values were obtained:
Mus musculus [1] = test: In vivo inhibition of TNSK/TNSK2-medited WNT/beta-catenin signaling in human COLO320DM cells xenografted Prkdc-NOD-SCID CB17 mouse assessed as reduction in active-beta catenin expression in tumor nuclear extract at 10 to 20 mg/kg, po administered twice daily for 5 days followed by 2 days interval for 2 cycles measured 4 hrs post-last dose by Western blot analysis; format: functional, organism-based
Cytochrome P450 2D6 = Cytochrome P450 2D6 (Homo sapiens, UniProt P10635); test: Inhibition of CYP2D6 in human liver microsomes using bufuralol as substrate preincubated for 5 mins followed by NADPH addition and measured for 10 to 30 mins by LC-MS/MS analysis; format: ADME
Mus musculus [2] = test: In vivo inhibition of TNSK/TNSK2-medited WNT/beta-catenin signaling in human COLO320DM cells xenografted Prkdc-NOD-SCID CB17 mouse assessed as reduction in active-beta catenin expression in tumor nuclear extract at 10 to 20 mg/kg, ip administered twice daily for 5 days followed by 2 days interval for 2 cycles measured 4 hrs post-last dose by Western blot analysis; format: functional, organism-based
[3] = Toxicity in human COLO320DM cells xenografted Prkdc-NOD-SCID CB17 mouse assessed as reduction in crypt proliferation at 50 mg/kg, ip administered twice daily for 5 days followed by 2 days interval for 2 cycles; details: in vivo
[4] = Tmax in ICR mouse at 20 mg/kg, ip; format: ADME, organism-based; details: in vivo
[5] = Half life in ICR mouse at 20 mg/kg, ip; format: ADME, organism-based; details: in vivo
[6] = Toxicity in human COLO320DM cells xenografted Prkdc-NOD-SCID CB17 mouse assessed as loss of body weight at 50 mg/kg, ip administered twice daily for 5 days followed by 2 days interval for 2 cycles; details: in vivo
[7] = Plasma concentration in human COLO320DM cells xenografted Prkdc-NOD-SCID CB17 mouse at 20 mg/kg, po administered twice daily for 5 days followed by 2 days interval for 2 cycles measured 4 hrs post-last dose; format: ADME, organism-based
[8] = AUC (infinity) in ICR mouse at 20 mg/kg, ip; format: ADME, organism-based; parameters: dose 20 mg/kg, route intraperitoneal, time infinity; details: in vivo
[9] = Toxicity in human COLO320DM cells xenografted Prkdc-NOD-SCID CB17 mouse assessed as behavioral changes at 10 to 20 mg/kg, ip administered twice daily for 5 days followed by 2 days interval for 2 cycles measured during compound dosing; format: organism-based; details: in vivo
Homo sapiens [10] = species on record: Homo sapiens
Mus musculus [11] = test: In vivo inhibition of TNSK/TNSK2-medited WNT/beta-catenin signaling in human COLO320DM cells xenografted Prkdc-NOD-SCID CB17 mouse assessed as reduction in total beta catenin expression in tumor nuclear extract at 10 to 20 mg/kg, ip administered twice daily for 5 days followed by 2 days interval for 2 cycles measured 4 hrs post-last dose by Western blot analysis; format: functional, organism-based
[12] = AUC (infinity) in Sprague-Dawley rat at 3 mg/kg, po; format: ADME, organism-based; parameters: dose 3 mg/kg, time infinity, route oral; details: in vivo
[13] = Tmax in ICR mouse at 20 mg/kg, po; format: ADME, organism-based; details: in vivo
Homo sapiens [14] = species on record: Homo sapiens; remark: listed apart in the source
[15] = Cmax in ICR mouse at 20 mg/kg, po; format: ADME, organism-based; parameters: dose 20 mg/kg, route oral; details: in vivo
[16] = Cmax in ICR mouse at 20 mg/kg, ip; format: ADME, organism-based; parameters: dose 20 mg/kg, route intraperitoneal; details: in vivo
[17] = Volume of distribution at steady state in Sprague-Dawley rat at 3 mg/kg, iv; format: ADME, organism-based; details: in vivo, read-out: Vdss
[18] = AUC (infinity) in ICR mouse at 20 mg/kg, po; format: ADME, organism-based; parameters: dose 20 mg/kg, time infinity, route oral; details: in vivo
[19] = Dose normalized AUC (infinity) in Sprague-Dawley rat at 1 mg/kg, iv; format: ADME, organism-based; details: in vivo
Mus musculus [20] = test: In vivo inhibition of TNSK/TNSK2-medited WNT/beta-catenin signaling in human COLO320DM cells xenografted Prkdc-NOD-SCID CB17 mouse assessed as upregulation of AXIN2 expression in tumor cytosolic extract at 10 to 20 mg/kg, ip administered twice daily for 5 days followed by 2 days interval for 2 cycles measured 4 hrs post-last dose by Western blot analysis; format: functional, organism-based
Homo sapiens [21] = species on record: Homo sapiens; remark: listed apart in the source
[22] = Plasma concentration in ICR mouse at 20 mg/kg, po measured after 4 hrs; format: ADME, organism-based
[23] = Half life in ICR mouse at 20 mg/kg, po; format: ADME, organism-based; details: in vivo
[24] = target: Poly [ADP-ribose] polymerase 1 (Homo sapiens, UniProt P09874); test: Inhibition of recombinant human PARP1 expressed in Escherichia coli assessed as reduction in auto-PARylation using histone as substrate measured after 45 mins in presence of biotinylated-NAD+ by ELISA
Cytochrome P450 2C9 = Cytochrome P450 2C9 (Homo sapiens, UniProt P11712); test: Inhibition of CYP2C9 in human liver microsomes using diclofenac as substrate preincubated for 5 mins followed by NADPH addition and measured for 10 to 30 mins by LC-MS/MS analysis; format: ADME
Cytochrome P450 2B6 = target: T1, Cytochrome P450 2B6 (Homo sapiens, UniProt P20813); test: Inhibition of CYP2B6 in human liver microsomes using bupropion as substrate preincubated for 5 mins followed by NADPH addition and measured for 10 to 30 mins by LC-MS/MS analysis; format: ADME
T1 sequence (P20813 whole entry): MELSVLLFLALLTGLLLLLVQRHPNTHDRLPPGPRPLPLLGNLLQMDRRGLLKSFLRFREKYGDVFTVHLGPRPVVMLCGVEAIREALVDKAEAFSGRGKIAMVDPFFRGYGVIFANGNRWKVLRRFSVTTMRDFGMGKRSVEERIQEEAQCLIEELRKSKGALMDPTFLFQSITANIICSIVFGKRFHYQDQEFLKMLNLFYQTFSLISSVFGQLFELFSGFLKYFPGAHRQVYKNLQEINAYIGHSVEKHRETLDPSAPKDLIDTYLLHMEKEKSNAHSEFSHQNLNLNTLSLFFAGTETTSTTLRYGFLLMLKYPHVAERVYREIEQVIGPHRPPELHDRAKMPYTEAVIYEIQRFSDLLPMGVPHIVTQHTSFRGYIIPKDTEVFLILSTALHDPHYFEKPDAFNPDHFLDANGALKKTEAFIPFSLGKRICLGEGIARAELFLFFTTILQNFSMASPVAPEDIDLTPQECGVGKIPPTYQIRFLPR

Sequence of Cytochrome P450 2D6 (P10635 whole entry): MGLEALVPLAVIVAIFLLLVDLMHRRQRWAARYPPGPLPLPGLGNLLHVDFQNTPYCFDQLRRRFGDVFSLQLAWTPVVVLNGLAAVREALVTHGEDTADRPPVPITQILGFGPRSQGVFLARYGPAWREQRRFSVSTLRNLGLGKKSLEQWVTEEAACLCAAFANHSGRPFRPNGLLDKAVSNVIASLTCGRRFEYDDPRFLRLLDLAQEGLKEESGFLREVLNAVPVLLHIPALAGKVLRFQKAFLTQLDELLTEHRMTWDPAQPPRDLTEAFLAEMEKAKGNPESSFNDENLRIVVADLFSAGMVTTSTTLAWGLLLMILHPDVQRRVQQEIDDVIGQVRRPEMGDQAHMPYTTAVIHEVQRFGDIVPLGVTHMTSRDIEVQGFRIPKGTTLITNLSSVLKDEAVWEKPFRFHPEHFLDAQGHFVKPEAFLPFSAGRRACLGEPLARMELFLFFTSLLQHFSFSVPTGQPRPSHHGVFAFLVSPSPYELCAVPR
Sequence of Cytochrome P450 2C9 (P11712 whole entry): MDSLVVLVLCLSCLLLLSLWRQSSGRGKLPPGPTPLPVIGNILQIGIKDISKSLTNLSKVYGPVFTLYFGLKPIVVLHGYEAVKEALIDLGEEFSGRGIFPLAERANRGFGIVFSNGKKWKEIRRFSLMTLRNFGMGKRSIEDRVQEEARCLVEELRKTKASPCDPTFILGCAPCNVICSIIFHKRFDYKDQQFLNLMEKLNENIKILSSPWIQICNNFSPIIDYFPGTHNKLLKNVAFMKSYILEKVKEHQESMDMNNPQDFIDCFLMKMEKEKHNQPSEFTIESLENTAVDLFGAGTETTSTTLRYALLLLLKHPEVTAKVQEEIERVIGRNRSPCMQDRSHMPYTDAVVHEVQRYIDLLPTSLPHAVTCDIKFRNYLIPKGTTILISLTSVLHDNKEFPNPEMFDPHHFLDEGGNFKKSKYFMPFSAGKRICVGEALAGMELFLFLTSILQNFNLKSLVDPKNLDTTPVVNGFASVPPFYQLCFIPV
Sequence of Poly [ADP-ribose] polymerase 1 (P09874 whole entry): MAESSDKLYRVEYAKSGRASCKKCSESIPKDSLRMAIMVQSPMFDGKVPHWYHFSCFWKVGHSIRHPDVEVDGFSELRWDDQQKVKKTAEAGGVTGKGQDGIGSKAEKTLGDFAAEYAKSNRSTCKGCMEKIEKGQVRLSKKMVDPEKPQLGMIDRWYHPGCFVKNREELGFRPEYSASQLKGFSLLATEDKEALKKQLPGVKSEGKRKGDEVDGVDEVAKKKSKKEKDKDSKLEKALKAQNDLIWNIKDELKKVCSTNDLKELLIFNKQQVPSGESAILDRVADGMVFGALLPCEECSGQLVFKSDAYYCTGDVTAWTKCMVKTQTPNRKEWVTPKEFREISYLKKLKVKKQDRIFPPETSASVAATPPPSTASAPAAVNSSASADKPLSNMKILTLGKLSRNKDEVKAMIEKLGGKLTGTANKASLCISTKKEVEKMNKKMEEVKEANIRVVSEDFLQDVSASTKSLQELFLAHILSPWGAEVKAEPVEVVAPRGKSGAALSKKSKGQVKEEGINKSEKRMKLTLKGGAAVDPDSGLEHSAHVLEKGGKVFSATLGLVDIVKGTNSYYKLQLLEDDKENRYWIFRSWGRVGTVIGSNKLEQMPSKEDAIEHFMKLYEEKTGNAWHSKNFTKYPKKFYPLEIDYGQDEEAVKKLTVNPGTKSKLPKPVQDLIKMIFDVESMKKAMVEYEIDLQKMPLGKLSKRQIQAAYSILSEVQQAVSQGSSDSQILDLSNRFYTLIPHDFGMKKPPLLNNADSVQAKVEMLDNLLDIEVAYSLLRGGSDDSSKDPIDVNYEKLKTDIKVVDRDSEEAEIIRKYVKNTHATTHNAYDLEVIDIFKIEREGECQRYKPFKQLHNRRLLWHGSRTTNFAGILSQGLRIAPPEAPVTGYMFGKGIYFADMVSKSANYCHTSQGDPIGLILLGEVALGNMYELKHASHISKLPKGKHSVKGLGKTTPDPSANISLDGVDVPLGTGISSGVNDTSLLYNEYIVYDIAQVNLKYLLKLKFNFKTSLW

C[C@@H]1CN(c2cc(F)c3c(c2)N(C)C(=O)C32CCN(c3nc4c(c(=O)[nH]3)CCCN4C)CC2)C[C@H](C)O1
inhibition (Mus musculus [1]): Active
IC50 (Cytochrome P450 2D6): > 10 µM
inhibition (Mus musculus [2]): inactive
Activity [3]: Toxic
Tmax [4]: 1 h
half-life [5]: 2.8 h
Activity [6]: Toxic
concentration at 4 h [7]: 23.3 µM
AUC(0-inf) [8]: 266 µM·h
Activity [9]: Non-Toxic
Ratio IC50 (Homo sapiens [10]): 34
inhibition (Mus musculus [11]): inactive
AUC(0-inf) [12]: 33 µM·h
Tmax [13]: 1 h
Ratio IC50 (Homo sapiens [14]): 504
Cmax [15]: 76.6 µM
Cmax [16]: 75.6 µM
Vd [17]: 1.02 L/kg
AUC(0-inf) [18]: 326 µM·h
AUC/dose [19]: 10.49 µmol·h/L
inhibition (Mus musculus [20]): Active
Ratio IC50 (Homo sapiens [21]): 223
concentration at 4 h [22]: 26.9 µM
half-life [23]: 1.7 h
IC50 [24]: 18.2 µM
IC50 (Cytochrome P450 2C9): > 10 µM
IC50 (Cytochrome P450 2B6): > 10 µM
